Source: patent US9101136B2, “Synergistic herbicide/fungicide composition containing certain pyridine carboxylic acids and certain fungicides” (Dow AgroSciences LLC, priority 2010, dated 2015)
Like-named read-outs stand apart in the source and are kept apart here.

Columns and labels:
Assay type in all cases: in vivo
[1] = tested on: bird's-eye speedwell (Veronica persica L; VERPE); test: Postemergence herbicidal activity of mixtures on bird's-eye speedwell; settings: for VERPE Ob (observed control): alone
Method: (§1) Seeds of the desired test plant species were planted in Sun Gro MetroMix 306 planting mixture, which typically has a pH of 6.0 to 6.8 and an organic matter content of about 30 percent, in plastic pots with a surface area of 103.2 square centimeters (cm^2). When required to ensure good germination and healthy plants, a fungicide treatment and/or other chemical or physical treatment was applied. The plants were grown for 7-36 days (d) in a greenhouse with an approximate 14-hour (h) photoperiod which was maintained at about 18° C. during the day and 17° C. during the night. Nutrients and water were added on a regular basis and supplemental lighting was provided with overhead metal halide 1000-Watt lamps as necessary. The plants were employed for testing when they reached the second or third true leaf stage.
(§2) Treatments consisted of a cereal fungicide compound (as listed in Tables 1 through 34) and the cereal herbicide, 4-amino-3-chloro-6-(4-chloro-2-fluoro-3-methoxyphenyl)pyridine-2-carboxylic acid, alone and in combination. Weighed amounts of acid, esters (methyl) or salts (triethylammonium, TEA) of 4-amino-3-chloro-6-(4-chloro-2-fluoro-3-methoxyphenyl)pyridine-2-carboxylic acid (Compound I) were placed in 25 milliliter (mL) glass vials and dissolved in a volume of 97:3 volume-to-volume (v/v) acetone/dimethyl sulfoxide (DMSO) to obtain 4.5 milligrams active ingredient per milliliter (mg ai/mL) concentrated solutions. […] The concentrated solutions of Compound I were diluted to 1.5 mg ai/mL with the addition of 2 volumes of an aqueous mixture containing acetone, water, isopropyl alcohol, DMSO, Agri-dex crop oil concentrate, and Triton® X-77 surfactant in a 64.7:26.0:6.7:2.0:0.7:0.01 v/v ratio. A dilution solution was prepared by mixing 1 volume of 97:3 v/v acetone/DMSO and 2 volumes of an aqueous mixture containing acetone, water, isopropyl alcohol, DMSO, Agri-dex crop oil concentrate, and Triton® X-77 surfactant in a 64.7:26.0:6.7:2.0:0.7:0.01 v/v ratio. Compound requirements are based upon a 12 mL application volume at a rate of 187 liters per hectare (L/ha). The concentrated solutions of the cereal fungicides were prepared following the same procedure. Weighed amounts of fungicide were placed in 25 mL glass vials and dissolved in a volume of 97:3 v/v acetone/DMSO to obtain concentrated fungicide solutions. The concentrated solutions of the safener were prepared following the same procedure. Weighed amounts of safener were placed in 25 mL glass vials and dissolved in a volume of 97:3 v/v acetone/DMSO to obtain concentrated safener solutions.
(§3) Spray solutions of the cereal herbicide and the fungicidal compound mixtures were prepared by adding the concentrated solutions to the appropriate amount of dilution solution to form 12 mL spray solution with active ingredients in combinations. Spray solutions of the cereal herbicide, herbicide safener and the fungicidal compound mixtures were prepared by adding the concentrated solutions to the appropriate amount of dilution solution to form 12 mL spray solution with active ingredients in combinations.
(§4) Formulated compounds were applied to the plant material with an overhead Mandel track sprayer equipped with 8002E nozzles calibrated to deliver 187 L/ha over an application area of 0.503 square meters (m^2) at a spray height of 18 inches […] above average plant canopy. Control plants were sprayed in the same manner with the solvent blank.
(§5) The treated plants and control plants were placed in a greenhouse as described above and watered by sub-irrigation to prevent wash-off of the test compounds. After 20-22 d, the condition of the test plants as compared with that of the control plants was determined visually and scored on a scale of 0 to 100 percent where 0 corresponds to no injury and 100 corresponds to complete kill. […]

[2] = tested on: scented mayweed (Matricaria chamomila L; MATCH); test: Postemergence herbicidal activity of mixtures on scented mayweed; set-up: pest or weed control: dose or concentration left out as unconfirmed; settings: for MATCH Ob (observed control): alone
Method: as §1, §2, §3, §4, §5

[3] = tested on: wild pansy (Viola tricolor L; VIOTR); test: Postemergence herbicidal activity of mixtures on wild pansy; settings: Viola tricolor, post-emergence
Method: as §1, §2, §3, §4, §5

[4] = tested on: kochia (Kochia scoparia L; KCHSC); test: Postemergence herbicidal activity of mixtures on kochia; set-up: pest or weed control: dose or concentration left out as unconfirmed; settings: for KCHSC Ob (observed control): alone
Method: as §1, §2, §3, §4, §5

[5] = tested on: Russian thistle (Salsola iberica L; SASKR); test: Postemergence herbicidal activity of mixtures on Russian thistle; settings: for SASKR Ob (observed control): alone
Method: as §1, §2, §3, §4, §5

[6] = fungicide 37.5 g/ha alone, read-out: VIOTR Ob

CCCCCC(C)OC(=O)COc1ccc(Cl)c2cccnc12 (centres unmarked) [cloquintocet-mexyl]
0%: VERPE Ob (observed control) ([1]; 4.4 g/ha) | VERPE Ob (observed control) ([1]; 35 g/ha) | MATCH Ob (observed control) ([2]; 4.4 g/ha) | MATCH Ob (observed control) ([2]; 35 g/ha) | pest or weed control at 4.4 g/ha ([3]; alone, 4.4 g/ha, read-out: VIOTR Ob (observed control)) | pest or weed control at 35 g/ha ([3]; alone, 35 g/ha, read-out: VIOTR Ob (observed control)) | KCHSC Ob (observed control) ([4]; 4.4 g/ha) | KCHSC Ob (observed control) ([4]; 35 g/ha) | SASKR Ob (observed control) ([5]; 4.4 g/ha) | SASKR Ob (observed control) ([5]; 35 g/ha)

CC(C1CC1)C(O)(Cn1cncn1)c1ccc(Cl)cc1 (stereo not drawn) [Cyproconazole, α-(4-chlorophenyl)-α-(1-cyclopropylethyl)-1H-1,2,4-triazole-1-ethanol]
0%: pest or weed control at 19.8 g/ha ([1]; Veronica persica, post-emergence, fungicide 19.8 g/ha alone, read-out: VERPE Ob) | pest or weed control at 19.8 g/ha ([2]; Matricaria, post-emergence, fungicide 19.8 g/ha alone, read-out: MATCH Ob) | pest or weed control at 19.8 g/ha ([3]; fungicide 19.8 g/ha alone, read-out: VIOTR Ob) | pest or weed control at 19.8 g/ha ([4]; Bassia scoparia, post-emergence, fungicide 19.8 g/ha alone, read-out: KCHSC Ob) | pest or weed control at 19.8 g/ha ([5]; Salsola tragus, post-emergence, fungicide 19.8 g/ha alone, read-out: SASKR Ob)

CO/N=C(/C(=O)OC)c1ccccc1COc1ccccc1C [Kresoxim-methyl, methyl (αE)-α-(methoxyimino)-2-[(2-methylphenoxy)methyl]benzeneacetate]
0%: pest or weed control at 25 g/ha ([2]; Matricaria, post-emergence, fungicide 25 g/ha alone, read-out: MATCH Ob)

CCCOc1nc2ccc(I)cc2c(=O)n1CCC [Proquinazid, 6-iodo-2-propoxy-3-propyl-4(3H)-quinazolinone]
0%: pest or weed control at 12.5 g/ha ([2]; Matricaria, post-emergence, fungicide 12.5 g/ha alone, read-out: MATCH Ob) | pest or weed control at 12.5 g/ha ([3]; fungicide 12.5 g/ha alone, read-out: VIOTR Ob)

COc1cc(C)c(C(=O)c2c(OC)ccc(Br)c2C)c(OC)c1OC [Metrafenone, (3-bromo-6-methoxy-2-methylphenyl)(2,3,4-trimethoxy-6-methylphenyl)methanone]
0%: pest or weed control at 37.5 g/ha ([2]; Matricaria, post-emergence, fungicide 37.5 g/ha alone, read-out: MATCH Ob) | pest or weed control at 37.5 g/ha [3, 6] | pest or weed control at 37.5 g/ha ([5]; Salsola tragus, post-emergence, fungicide 37.5 g/ha alone, read-out: SASKR Ob)

Fc1ccc([C@]2(Cn3cncn3)O[C@H]2c2ccccc2Cl)cc1 (racemic) [Epoxiconazole, rel-1-[[(2R,3S)-3-(2-chlorophenyl)-2-(4-fluorophenyl)oxiranyl]methyl]-1H-1,2,4-triazole]
0%: pest or weed control at 31.25 g/ha ([1]; Veronica persica, post-emergence, fungicide 31.25 g/ha alone, read-out: VERPE Ob) | pest or weed control at 31.25 g/ha ([2]; Matricaria, post-emergence, fungicide 31.25 g/ha alone, read-out: MATCH Ob) | pest or weed control at 31.25 g/ha ([3]; fungicide 31.25 g/ha alone, read-out: VIOTR Ob) | pest or weed control at 31.25 g/ha ([4]; Bassia scoparia, post-emergence, fungicide 31.25 g/ha alone, read-out: KCHSC Ob) | pest or weed control at 31.25 g/ha ([5]; Salsola tragus, post-emergence, fungicide 31.25 g/ha alone, read-out: SASKR Ob)

Fc1ccc(Oc2ccnc3cc(Cl)cc(Cl)c23)cc1 [Quinoxyfen, 5,7-dichloro-4-(4-fluorophenoxy)quinoline]
0%: VERPE Ob (observed control) ([1]; 37.5 g/ha) | MATCH Ob (observed control) ([2]; 37.5 g/ha) | pest or weed control at 37.5 g/ha ([3]; alone, 37.5 g/ha, read-out: VIOTR Ob (observed control)) | pest or weed control at 37.5 g/ha [3, 6] | pest or weed control at 37.5 g/ha ([4]; Bassia scoparia, post-emergence, fungicide 37.5 g/ha alone, read-out: KCHSC Ob) | KCHSC Ob (observed control) ([4]; 37.5 g/ha) | SASKR Ob (observed control) ([5]; 37.5 g/ha)

COC(=O)Nc1nc2ccccc2[nH]1 [Carbendazim, methyl 1H-benzimidazol-2-ylcarbamate]
0%: pest or weed control at 62.5 g/ha ([3]; fungicide 62.5 g/ha alone, read-out: VIOTR Ob) | pest or weed control at 62.5 g/ha ([4]; Bassia scoparia, post-emergence, fungicide 62.5 g/ha alone, read-out: KCHSC Ob)

OC(Cc1ccccc1Cl)(Cn1[nH]cnc1=S)C1(Cl)CC1 (centres unmarked) [Prothioconazole, 2-[2-(1-chlorocyclopropyl)-3-(2-chlorophenyl)-2-hydroxypropyl]-1,2-dihydro-3H-1,2,4-triazole-3-thione]
0%: pest or weed control at 50 g/ha ([1]; Veronica persica, post-emergence, fungicide 50 g/ha alone, read-out: VERPE Ob) | pest or weed control at 50 g/ha ([2]; Matricaria, post-emergence, fungicide 50 g/ha alone, read-out: MATCH Ob) | pest or weed control at 50 g/ha ([4]; Bassia scoparia, post-emergence, fungicide 50 g/ha alone, read-out: KCHSC Ob) | pest or weed control at 50 g/ha ([5]; Salsola tragus, post-emergence, fungicide 50 g/ha alone, read-out: SASKR Ob)

CC1(C)CCC(Cc2ccc(Cl)cc2)C1(O)Cn1cncn1 (centres unmarked) [Metconazole, 5-[(4-chlorophenyl)methyl]-2,2-dimethyl-1-(1H-1,2,4-triazol-1-ylmethyl)cyclopentanol]
0%: pest or weed control ([2]; Matricaria, post-emergence, read-out: MATCH Ob) | pest or weed control ([4]; Bassia scoparia, post-emergence, read-out: KCHSC Ob)

COc1ccnc(C(=O)N[C@H]2COC(=O)[C@H](Cc3ccccc3)[C@@H](OC(=O)C(C)C)[C@H](C)OC2=O)c1OCOC(=O)C(C)C [compound II, isobutyric acid (3S,6S,7R,8R)-8-benzyl-3-[(3-isobutyryloxymethoxy-4-methoxypyridine-2-carbonyl)-amino]-6-methyl-4,9-dioxo-[1,5]dioxonan-7-yl ester]
0%: MATCH Ob (observed control) ([2]; 40.5 g/ha) | pest or weed control at 40.5 g/ha ([3]; read-out: VIOTR Ob (observed control)) | KCHSC Ob (observed control) ([4]; 40.5 g/ha) | SASKR Ob (observed control) ([5]; 40.5 g/ha)

CCCN(CC)CC1COC2(CCC(C(C)(C)C)CC2)O1 (centres unmarked) [Spiroxamine, 8-(1,1-dimethylethyl)-N-ethyl-N-propyl-1,4-dioxaspiro[4.5]decane-2-methanamine]
0%: MATCH Ob (observed control) ([2]; 180 g/ha) | pest or weed control at 180 g/ha ([3]; alone, 180 g/ha, read-out: VIOTR Ob (observed control)) | KCHSC Ob (observed control) ([4]; 180 g/ha)

Cc1cc(C2CC2)nc(Nc2ccccc2)n1 [Cyprodinil, 4-cyclopropyl-6-methyl-N-phenyl-2-pyrimidinamine]
0%: pest or weed control at 187.5 g/ha ([5]; Salsola tragus, post-emergence, fungicide 187.5 g/ha alone, read-out: SASKR Ob)

OC(Cn1cncn1)(c1ccc(F)cc1)c1ccccc1F (stereo not drawn) [Flutriafol, α-(2-fluorophenyl)-α-(4-fluorophenyl)-1H-1,2,4-triazole-1-ethanol]
0%: pest or weed control at 21.25 g/ha ([2]; Matricaria, post-emergence, fungicide 21.25 g/ha alone, read-out: MATCH Ob) | pest or weed control at 21.25 g/ha ([3]; fungicide 21.25 g/ha alone, read-out: VIOTR Ob) | pest or weed control at 21.25 g/ha ([4]; Bassia scoparia, post-emergence, fungicide 21.25 g/ha alone, read-out: KCHSC Ob) | pest or weed control at 21.25 g/ha ([5]; Salsola tragus, post-emergence, fungicide 21.25 g/ha alone, read-out: SASKR Ob)
